Data set [1] can be described thus: in vivo. Also noted: species or system Sprague-Dawley rats. The conditions noted are these: rat, iv. The protocol:
Sprague-Dawley rats were randomly divided into three groups and each group contains 6 rats. The prepared micelles solution was injected through femoral vein and the dose was 20 mg/kg (sorafenib) and 30 mg/kg (TG100-115). Free sorafenib and TG100-115 solutions were used as reference and the dose is same as the micelles group. After the end of administration, appropriate blood was obtained from the retro-orbital sinus at preselected time intervals (5, 10, 15, 30, 60 min, 2, 4, 6, 8, 12, 24, 48 and 72 h). Then, the blood was centrifuged at 3500 rpm for 10 min to acquire final plasma.
The plasma concentration of sorafenib and TG100-115 was measured using a validated HPLC-MS/MS method. The specific conditions are as follows: poroshell 120 poroshell-C18 column (50 mm × 4.6 mm, 2.7 μm, Agilent) was chosen as an analytical column, and the column temperature was 40 °C. The mobile phase comprised acetonitrile and 10 mmol/L ammonium acetate containing 0.1% formic acid, and the flow rate was 0.7 mL/min. Imatinib and naproxen were chosen as internal standard (IS) to improve the accuracy of the measurement. The ion ionization of sorafenib and imatinib was positive ion ionization, while TG100-115 and naproxen were negative ion ionization. The specific MS parameters of analytes were shown in S1 (Supplemental 1).
Plasma samples are processed according to the standard operating practices described below. Briefly, add 150.0 μL of plasma sample and 20.0 μL of the IS solution in a 2.0 mL EP tube. Then, the solution was vortexed for 1.0 min and added 300 μL of ice acetonitrile to precipitate protein. After vortexing for 1.0 min, the solution was centrifuged at 15000 rpm for 10 min. After that, 150 μL of supernatant was collected for quantitative analysis.

Data set [2] deals with Hep-3B-xenografted nude mouse model. Nature of the data set: In vivo anti-tumor activity and safety in Hep-3B-xenografted nude mouse model. To be noted: Hep-3B nude mouse, TG100-115 30 mg/kg and/or sorafenib 20 mg/kg; for IRT (tumor inhibition rate): versus normal saline. How it is done: The in vivo anti-tumor activity and safety of the prepared micelles was investigated by using Hep-3B-xenografted nude mouse model. The mice were randomly divided into six groups (n = 6) when the tumor volumes reached around 150 mm^3. The tumor-bearing mice were treated with non-targeted micelles solution, targeted micelle solution, TG100-115 solution, sorafenib solution, mixed sorafenib/TG100-115 solution and normal saline. […] The mice were sacrificed on day 28. Thereafter, the tumors were totally excised and precisely weighed. The tumor inhibitory rates were calculated using the formula: Tumor inhibition rate (%) = (Vblank −Vsample)/Vblank × 100%, Vblank, and Vsample represent the tumor volumes in the blank and test, reference group respectively.

On the set-up of data set [3]: method as in Hsu et al., 2018; Wang et al., 2018. The conditions noted are these: checkpoint inhibitor alone only 20%, ref Hsu et al., 2018, Wang et al.; cited from earlier work.
The mark [4] stands for this setting: twice a week for 4 weeks, day 28.

For orientation: AUC(0-inf) means the area under the concentration-time curve extrapolated to infinity. For orientation: AUC(0-t) means exposure summed from dosing to a finite time, without extrapolation to infinity. A higher AUC(0-t) goes with high exposure. As usually defined, the Cmax is the peak of the concentration-time curve. The Tmax is the time from dosing to the highest level. Broadly, the clearance is a measure of how efficiently the substance is removed, as volume per time. A lower clearance goes with a low capacity for elimination. By half-life is commonly meant the time in which the quantity being followed falls by half. The low end stands for fast loss, the high end for slow loss. Regarding `CNC(=O)c1cc(Oc2ccc(NC(=O)Nc3ccc(Cl)c(C(F)(F)F)c3)cc2)ccn1` [Sorafenib], in data set [1] (Sprague-Dawley, 20 mg/kg), the AUC(0-inf) is 78.6 ± 20.6 ng·h/mL, the AUC(0-t) worked out at 74.5 ± 18.7 ng·h/mL, the Cmax came out at 17.3 ± 3.2 ng/mL and the Tmax worked out at 0.167 ± 0.073 h. Further, in data set [1] (Sprague-Dawley, 20 mg/kg), the clearance is 423 mL/min/kg and the half-life is 8.8 ± 1.4 h. In data set [2] (setting [4]), the “Body weight Final” value amounted to 34.2 g, the Tumor weight came out at 2.48 ± 0.36 g and the “IRT (tumor inhibition rate)” value stood at 46.09%. The “Body weight Initial” value in data set [2] (before treatment) is on record as 23.6 g.
As for `Nc1nc(N)c2nc(-c3cccc(O)c3)c(-c3cccc(O)c3)nc2n1` [TG100-115], in data set [3], the “efficiency of checkpoint inhibitor in the treatment of immune-tolerant mice when combined with TG100-115” value is reported as 80%. Moreover, the “CLz of TG100-115” value in data set [1] (30 mg/kg) turned out to be 545 ± 91.7 mL/min/kg. In data set [2] (setting [4]), the Tumor weight is 2.72 ± 0.31 g and the “IRT (tumor inhibition rate)” value was 40.87%.

Values taken from paper PMC6711177, “Sorafenib-loaded hydroxyethyl starch-TG100-115 micelles for the treatment of liver cancer based on synergistic treatment” (Drug Delivery, 2019).
